Source: ChEMBL document CHEMBL4342426, “Structure-activity relationship of 4-azaindole-2-piperidine derivatives as agents against Trypanosoma cruzi” (Bioorg Med Chem Lett, 2020)

Experiments:
cells = settings: Homo sapiens, MRC-5 SV2, 72 h
Description: (§1) Cytotoxicity against human MRC5 SV2 cells assessed as reduction in cell viability incubated for 3 days by fluorimetry

Macrophage = test: cells; settings: Mus musculus, 72 h
Description: (§2) Cytotoxicity against mouse peritoneal Macrophage cells assessed as reduction in cell viability incubated for 3 days by fluorimetry

in vitro [1] = settings: human, MRC5 SV2 cells
Description: as §1

in vitro [2] = settings: human, liver microsomes
Description: Metabolic stability in human liver microsomes assessed as intrinsic clearance at 0.5 uM incubated for 30 mins by LC-MS/MS analysis

in vitro [3] = settings: mouse, liver microsomes
Description: Metabolic stability in mouse liver microsomes assessed as intrinsic clearance at 0.5 uM incubated for 30 mins by LC-MS/MS analysis

physchem = settings: buffer, pH 7.4
Description: Lipophilicity, logD of compound at pH 7.4 by HPLC analysis

in vitro [4] = settings: mouse, peritoneal macrophages
Description: as §2

in vitro [5] = settings: PAMPA
Description: Effective permeability of compound by PAMPA assay

in vitro [6] = settings: mouse, liver microsomes; remark: listed apart in the source
Description: Metabolic stability in mouse liver microsomes assessed as fraction unbound at 0.5 uM incubated for 30 mins by LC-MS/MS analysis

Trypanosoma cruzi = test: microbe, parasite or virus in culture; settings: Tulahuen CL2, MRC-5 SV2, 168 h
Description: Antitrypanosomal activity against Trypanosoma cruzi Tulahuen CL2 amastigotes infected in human MRC5 SV2 cells incubated for 7 days by chlorophenol red beta-D-galactopyranoside substrate based spectrophotometric assay

Trypanosoma brucei = test: microbe, parasite or virus in culture; settings: Squib 427, 72 h
Description: Antitrypanosomal activity against Trypanosoma brucei Squib 427 assessed as reduction in parasite growth incubated for 72 hrs by resazurin dye based fluorimetric analysis

[7] = tested on: Trypanosoma brucei rhodesiense; test: microbe, parasite or virus in culture; settings: STIB900, 72 h
Description: Antiprotozoal activity against Trypanosoma brucei rhodesiense STIB900 trypomastigotes incubated for 72 hrs by resazurin dye based fluorimetric analysis

Leishmania infantum = test: microbe, parasite or virus in culture; settings: for IC50: MHOM/MA(BE)/67/ITMAP263, 120 h; for IC90: MHOM/MA(BE)/67/ITMAP263, in Mus musculus, 120 h
Description: Antileishmanial activity against amastigote stage of Leishmania infantum MHOM/MA(BE)/67/ITMAP263 infected in mouse peritoneal macrophage assessed as parasite growth inhibition incubated for 5 days by Giemsa staining based assay

in vitro [8] = settings: human, MRC5 SV2 cells; remark: listed apart in the source
Description: Selectivity index, ratio of IC50 for human MRC5 SV2 cells to IC50 for Trypanosoma cruzi Tulahuen CL2 amastigotes infected in human MRC5 SV2 cells

| IC90 at 72 h (in vitro [1]) | CLint scaled at 0.5 h, 0.5 µM (in vitro [2]) | microsomal CLint at 0.5 h, 0.5 µM (in vitro [2]) | CLint scaled at 0.5 h, 0.5 µM (in vitro [3]) | microsomal CLint at 0.5 h, 0.5 µM (in vitro [3]) | logD (physchem) | IC90 at 72 h (in vitro [4]) | Papp (in vitro [5]) | fraction unbound at 0.5 h, 0.5 µM (in vitro [6]) | IC50 (Trypanosoma brucei) | IC90 (Trypanosoma brucei) | IC50 [7] | IC90 [7] | IC50 (Leishmania infantum) | IC90 (Leishmania infantum) | SMILES | IC50 (cells) | IC50 (Macrophage) | IC50 (Trypanosoma cruzi) | IC90 (Trypanosoma cruzi) | selectivity ratio (in vitro [8]) |
| --- | --- | --- | --- | --- | --- | --- | --- | --- | --- | --- | --- | --- | --- | --- | --- | --- | --- | --- | --- | --- |
| 64 µM | 38.3 to 210 mL/min/kg | 23 to 114 µL/min/mg | 315 to 1070 mL/min/kg | 64 to 196 µL/min/mg | 2.94 to 3.02 | 64 µM | 0.584 to 2.12 ×10⁻⁶ cm/s | 0.584 to 0.649 | 64 µM | 64 µM | 64 µM | 64 µM | 64 µM | 64 µM | O=C(c1cccc(C(F)(F)F)n1)N1CCCC(c2cc3ncccc3[nH]2)C1 (centres undefined) | 64 µM | 64 µM | 14.8 to 26.1 µM | 59.3 to 60.5 µM | 2.42 to 4.35 |
| 64 µM | 29.5 mL/min/kg | 26.2 µL/min/mg | 774 mL/min/kg | 233 µL/min/mg | 2.3 | 64 µM | 2.88 ×10⁻⁶ cm/s | 0.96 | 64 µM | 64 µM | 64 µM | 64 µM | 64 µM | 64 µM | Cc1nc(C)c(C(=O)N2CCCC(c3cc4ncccc4[nH]3)C2)s1 (centres undefined) | 64 µM | 64 µM | 64 µM | 64 µM | – |
| 64 µM | < 36.7 mL/min/kg | < 23 µL/min/mg | < 108 mL/min/kg | < 23 µL/min/mg | 1.09 | 64 µM | 1.42 ×10⁻⁶ cm/s | 0.684 | 64 µM | 64 µM | 64 µM | 64 µM | 64 µM | 64 µM | Nc1cc(C2CCCN(C(=O)c3ccccc3)C2)[nH]n1 (centres undefined) | 64 µM | 64 µM | 64 µM | 64 µM | – |
| 64 µM | < 26.7 mL/min/kg | < 23 µL/min/mg | 175 mL/min/kg | 54.3 µL/min/mg | 1.77 | 64 µM | 3.76 ×10⁻⁶ cm/s | 0.991 | 64 µM | 64 µM | 64 µM | 64 µM | 64 µM | 64 µM | Nc1cc(C2CCCN(C(=O)c3cc(C(F)(F)F)no3)C2)[nH]n1 (centres undefined) | 64 µM | 64 µM | 64 µM | 64 µM | – |

More lines, now with the values behind:

| SMILES | IC90 at 72 h (in vitro [1]) | CLint scaled at 0.5 h, 0.5 µM (in vitro [2]) | microsomal CLint at 0.5 h, 0.5 µM (in vitro [2]) | CLint scaled at 0.5 h, 0.5 µM (in vitro [3]) | microsomal CLint at 0.5 h, 0.5 µM (in vitro [3]) | logD (physchem) | IC90 at 72 h (in vitro [4]) | Papp (in vitro [5]) | fraction unbound at 0.5 h, 0.5 µM (in vitro [6]) | IC50 (Trypanosoma brucei) | IC90 (Trypanosoma brucei) | IC50 [7] | IC90 [7] | IC50 (Leishmania infantum) | IC90 (Leishmania infantum) | IC50 (cells) | IC50 (Macrophage) | IC50 (Trypanosoma cruzi) | IC90 (Trypanosoma cruzi) | selectivity ratio (in vitro [8]) |
| --- | --- | --- | --- | --- | --- | --- | --- | --- | --- | --- | --- | --- | --- | --- | --- | --- | --- | --- | --- | --- |
| O=C(CCc1nc2cccnc2n1CCO)Nc1ccccc1 | 64 µM | < 35 mL/min/kg | < 23 µL/min/mg | 281 mL/min/kg | 62.1 µL/min/mg | 1.85 | 64 µM | 3.98 ×10⁻⁶ cm/s | 0.705 | 64 µM | 64 µM | 64 µM | 64 µM | 64 µM | 64 µM | 64 µM | 64 µM | 64 µM | 64 µM | – |
| CCN(CCC(=O)Nc1cccnc1)C(=O)c1ccc(F)cc1 | 64 µM | < 43.3 mL/min/kg | < 23 µL/min/mg | 140 mL/min/kg | 25.1 µL/min/mg | 2.03 | 64 µM | 5.23 ×10⁻⁶ cm/s | 0.571 | 64 µM | 64 µM | 64 µM | 64 µM | 64 µM | 64 µM | 64 µM | 64 µM | 64 µM | 64 µM | – |
| COc1ccc2[nH]c(C3CCCN(C(=O)c4ccc(F)cc4)C3)cc2n1 (centres undefined) | 64 µM | 35 mL/min/kg | 26.4 µL/min/mg | 593 mL/min/kg | 151 µL/min/mg | 3.39 | 64 µM | 14.4 ×10⁻⁶ cm/s | 0.815 | 64 µM | 64 µM | 19.6 µM | 30.6 µM | 64 µM | 64 µM | 64 µM | 64 µM | 64 µM | 64 µM | – |
| O=C1c2ccccc2CN1CCc1cc2ncccc2[nH]1 | 64 µM | 119 mL/min/kg | 69.1 µL/min/mg | 1090 mL/min/kg | 213 µL/min/mg | 2.19 | 64 µM | 0.504 ×10⁻⁶ cm/s | 0.626 | 64 µM | 64 µM | 64 µM | 64 µM | 64 µM | 64 µM | 64 µM | 64 µM | 64 µM | 64 µM | – |
| O=C(c1ccccc1)N1CCCC(c2cn3cccnc3n2)C1 (centres undefined) | 64 µM | < 31.7 mL/min/kg | < 23 µL/min/mg | 338 mL/min/kg | 127 µL/min/mg | 1.71 | 64 µM | 2.75 ×10⁻⁶ cm/s | 0.805 | 64 µM | 64 µM | 64 µM | 64 µM | 64 µM | 64 µM | 64 µM | 64 µM | 64 µM | 64 µM | – |
| CC(C)(C)OC(=O)N1CCCC(c2cn3cccnc3n2)C1 (centres undefined) | 64 µM | 49 mL/min/kg | 38 µL/min/mg | 3290 mL/min/kg | 861 µL/min/mg | 2.58 | 64 µM | 7.69 ×10⁻⁶ cm/s | 0.836 | 64 µM | 64 µM | 64 µM | 64 µM | 64 µM | 64 µM | 64 µM | 64 µM | 64 µM | 64 µM | – |
| O=C(Cc1ccccc1)N1CCN(c2nc3ccccc3s2)CC1 | 64 µM | 210 mL/min/kg | 126 µL/min/mg | – | – | 3.65 | 64 µM | 15.3 ×10⁻⁶ cm/s | 0.647 | 64 µM | 64 µM | 56 µM | 64 µM | 64 µM | 64 µM | 64 µM | 64 µM | 40 µM | 62.9 µM | 1.59 |
